Laboratory results reported in patent US20160287553A1, “TRANSLATION INHIBITORS IN HIGH-DOSE CHEMO- AND/OR HIGH-DOSE RADIOTHERAPY” (DEUTSCHES KREBSFORSCHUNGSZENTRUM, priority 2013, published 2016).

Tests used:
Peripheral blood T cells = assay: Etoposide-induced apoptotic cell death of T cells (DNA fragmentation, AnnexinV, FSC/SSC); conditions: for Protection of normal T cells from Etoposide-induced cell death by Roc-derivatives: 50 μM Etoposide, 75 nM Roc-derivative, 24 h (FIG. 6b)
Description: The human malignant cell lines EU-3 (acute lymphoblastic leukemia), DND-41 (T cell leukemia), Hut-78 (T cell lymphoma), SKW6.4 (B cell leukemia), Reh (acute lymphoblastic leukemia), IM-9 (Chronic myeloid leukemia), HL-60 (promyelocytic leukemia), L1236 (Hodgkin's lymphoma) and NCI-H209 (small cell lung cancer) were cultured at 37° C. with 5% CO2 in RPMI-1640 medium (Sigma-Aldrich, Munich, Germany) supplemented with 10% FCS, 100 U/ml Penicillin (Sigma-Aldrich, Munich, Germany) and 100 μg/ml Streptamycin (Sigma-Aldrich, Munich, Germany) SCLC-21H cells (small cell lung cancer) were cultured in DMEM medium (Sigma-Aldrich, Munich, Germany) supplemented with 10% FCS. Peripheral blood T lymphocytes were isolated as previously described (Klas et al., Int Immunol. 1993; 5: 625-630). B lymphocytes and NK cells were isolated by magnetic activated cell sorting using “B cell isolation kit II” (Miltenyi Biotech, Bergisch Gladbach, Germany) and “NK cell isolation kit, human” (Miltenyi Biotech, Bergisch Gladbach, Germany), respectively, according to the manufacturer's instructions. Human neutrophils were separated from peripheral blood mononuclear cells by Ficoll-Paque density centrifugation, followed by incubation in 1.05% dextran for 30 min at room temperature. Remaining erythrocytes were lysed by resuspension in ice-cold 0.2% sodium chloride solution. After 1 min ice-cold 1.6% sodium-chloride solution was added and lysis was stopped by addition of PBS and neutrophils were resuspended in medium at a concentration of 2×10^6 cells/ml. Human primary cardiomyocytes were purchased from PromoCell (Heidelberg, Germany) and cultured in Myocyte Growth Medium (PromoCell, Heidelberg, Germany). Remaining primary human cells were cultured in RPMI-1640 medium with the same conditions described above.
Apoptotic cell death was determined by AnnexinV staining, cellular forward scatter/side scatter (FSC/SSC) profile, or DNA fragmentation. For AnnexinV staining, 2×10^5 cells were treated with different drugs for indicated time periods, washed with AnnexinV binding buffer (0.01 M Hepes, 0.14 M NaCl, 2.5 mM CaCl2), and stained with AnnexinV-FITC antibody (Immunotools, Friesoythe, Germany) and 7-amino-actinomycin D (Sigma-Aldrich, Munich, Germany) for 30 min at 4° C. The amount of AnnexinV positive cells was determined by FACS measurement. DNA fragmentation was determined according to the method of Nicoletti (Nicoletti et al., J Immunol Methods. 1991; 139: 271-279). Briefly, 2×10^5 cells were treated as indicated, washed with PBS and lysed in Nicoletti buffer (0.1% sodium citrate, 0.1% Triton X-100, 50 μg/ml propidium iodide). DNA fragmentation was determined by FACS. Apoptosis-like cells were determined by forward scatter and side scatter (FSC/SSC) index. Specific DNA fragmentation/specific AnnexinV positive cells/specific apoptosis was calculated as follows: (percentage of experimental DNA fragmentation (or Annexin V positive cells or apoptosis)−percentage of spontaneous DNA fragmentation (or Annexin V positive cells or apoptosis)/(100−percentage of spontaneous DNA fragmentation (or Annexin V positive cells or apoptosis))×100.

Primary human T cells = assay: Ionizing radiation (IR)-induced apoptosis in T cells; format: cell-based; conditions: 24 h, increasing doses of IR, different concentrations of FL3 (FIG. 8b)
Description: (§1) DNA fragmentation was determined by FACS.
The radioprotective effect mediated by Roc-A was the highest when cells were treated with Roc-A 1 h before radiation of cells (FIG. 1d). However, when cells were treated 4 h after radiation, the radioprotective effect was still higher than 50% (FIG. 1d).

p53 = p53 protein expression by immunoblot; format: cell-based, human; conditions: T cells, 100 nM Bortezomib
Description: Immunoblot analysis was carried out as previously described (Polier et al., Chem Biol. 2012; 19: 1093-1104). Briefly, 4-20×10^6 cells were treated with different reagents as indicated and lysed in RIPA buffer (50 mM Tris HCl, 137 mM NaCl, 0.5% Na Deoxycholate, 1% Triton X-100, 0.1% SDS, protease inhibitors). Proteins were separated by SDS-PAGE and transferred to a nitrocellulose membrane (Amersham Biosciences, Little Chalfon, UK) using a semi-dry blotting approach. The following antibodies were used: p53 (DO-1) antibody was purchased from Santa Cruz Biotechnology (Heidelberg, Germany). Tubulin and actin (A5441) antibodies were purchased from Sigma-Aldrich (St. Louis, USA).
The transcription factor p53 is a major regulator of DNA damage-induced apoptosis (Lowe et al., Cell. 1993; 74: 957-967). Therefore, we investigated the effect of Roc-A on the expression level of p53.
p53 protein expression can be regulated at the level of transcription, translation, and ubiquitination-mediated degradation (Marine & Lozano, Cell Death Differ. 2010; 17: 93-102). It has been shown that upon DNA damage p53 undergoes post-translational modifications leading to its deubiquitination and, thus, stabilization (Lee & Gu, Cell Death Differ. 2010; 17: 86-92). To investigate whether Roc-A could decrease p53 stability, we treated T cells with the proteasome inhibitor Bortezomib to block proteasome-mediated degradation.

malignant cells = assay: Fold change in cell death on raising the Etoposide dose, malignant cells (FIG. 9a-b); format: cell-based; conditions: Etoposide from 6.25 μM to 50 μM, 24 h, solvent (FIG. 9a)
Description: (§2) (a) Cells from (b) were grouped into malignant and non-malignant cells. Shown are means of three independent experiments. Abbreviations; HSPCs=hematopoietic stem and progenitor cells. (c-d) Malignant and non-malignant cells were exposed to ionizing radiation (IR) in the presence of 75 nM Roc-A or solvent (DMSO) and cell death was determined after 24 h by DNA fragmentation. Depicted is the fold-change in cell death that was measured when doses of IR were increased from 2 Gy to 10 Gy. (c) Cells from (d) were grouped into malignant and non-malignant cells. Shown are means of three independent experiments.
as §1
(§3) Roc-A specifically prevents the cause of chemotherapeutic and radiation-induced side-effects, i.e., the death of healthy cells. […] Consequently, high-dose therapy is not possible, as side effects would be too high.

non-malignant cells = assay: Fold change in cell death on raising the Etoposide dose, non-malignant cells (FIG. 9a-b); format: cell-based; conditions: Etoposide from 6.25 μM to 50 μM, 24 h, solvent (FIG. 9a)
Description: as §2, §1, §3

[1] = system: protein synthesis in T cells; assay: Translation assay: [35S]methionine incorporation in T cells; format: cell-based, human; conditions: T cells (FIG. 6b)
Description: The relative amount of protein synthesis was determined by measuring the amount of incorporation of ^35S-methionine into the protein. Briefly, cells were pre-cultured in methionine-free medium (supplemented with 10% dialyzed FCS) for 3 h, followed by incubation with 3.5 μCi of ^35S-methionine-labeling mix (PerkinElmer, Waltham, Mass., USA) per 8×10^5 cells for 6 h as indicated. After the treatment, cells were washed twice with ice-cold PBS and lysed in RIPA buffer. 50 μl of each lysate were added to 1 ml of Liquid Scintillation Cocktail solution (Beckman Coulter, Brea, Calif., USA) and the amount of incorporated radioactivity was determined by liquid scintillation counting.
Roc-A has been well documented to inhibit protein translation (Polier et al., Chem Biol. 2012; 19: 1093-1104; Sadlish et al., ACS Chem Biol. 2013; doi:10.1021/cb400158t; Bleumink et al., Cell Death Differ. 2011; 18: 362-370; Cencic et al., PloS one. 2009; 4: e5223). Thus, we expected that Roc-A-mediated suppression of genotoxin-induced p53 upregulation may be regulated by inhibition of p53 protein synthesis.

ERK = conditions: Polier et al., op. cit.; cited from earlier work

Compound | Protection of normal T cells from Etoposide-induced cell death by Roc-derivatives (Peripheral blood T cells) | Inhibition of [35S]methionine incorporation (protein translation) [1] | Inhibitory effect on ERK activity / activation (ERK) | also measured
COc1cc(OC)c2c(c1)O[C@@]1(c3ccc(Br)cc3)[C@H](c3ccccc3)C[C@@H](O)[C@@]21O (racemic) [FL3, racemic bromo-demethoxy-rocaglaol] |  |  |  | Protection of T cells from Etoposide-induced apoptotic cell death by FL3 (Peripheral blood T cells; 24 h, increasing doses of Etoposide, different concentrations of FL3 (FIG. 8a)): protects T cells; Protection of T cells from IR-induced apoptotic cell death by FL3 (Primary human T cells): protects T cells
CC(C)C[C@H](NC(=O)[C@H](Cc1ccccc1)NC(=O)c1cnccn1)B(O)O [Bortezomib, reference compound] |  |  |  | Interference with Roc-A block of Etoposide-induced p53 upregulation (p53; 50 μM Etoposide, 75 nM Roc-A, 4 h (FIG. 6a)): did also not interfere with the ability of Roc-A to block Etoposide-induced p53 upregulation; p53 level on proteasome inhibition (p53; absence of Roc-A (FIG. 6a)): led to an increase in p53; p53 level on proteasome inhibition (p53; presence of 75 nM Roc-A (FIG. 6a)): could not increase p53
COc1cc([C@@H]2c3cc4c(cc3[C@@H](O[C@@H]3O[C@@H]5CO[C@@H](C)O[C@H]5[C@H](O)[C@H]3O)[C@H]3COC(=O)[C@H]23)OCO4)cc(OC)c1O [Etoposide, reference compound] |  |  |  | Cell death of normal T cells by the genotoxin (Peripheral blood T cells; 24 h, increasing concentrations of Etoposide): caused cell death of normal T cells; Increase in Etoposide-induced cell death (malignant cells): approximately 3 fold; Increase in Etoposide-induced cell death (non-malignant cells): up to 3 fold
COC(=O)C1C(OC(C)=O)C2(O)c3c(OC)cc(OC)cc3OC2(c2ccc(OC)cc2)C1c1ccccc1 (centres unmarked) [Roc-AA, C-1-O-acetyl-methylrocaglate] | did not protect T cells | did not inhibit protein translation | do not show any or very little inhibitory effects on ERK activity | 
COc1ccc([C@@]23Oc4cc(OC)cc(OC)c4[C@]2(O)[C@H](OC(C)=O)[C@H](C(=O)N(C)C)[C@H]3c2ccccc2)cc1 [Roc-AB, 1-O-acetyl-rocaglamide] | different levels of protection | inhibited [^35S]methionine incorporation at different degrees | inhibit ERK activation with different efficacies | 
COC(=O)C1C(O)C2(O)c3c(OC)cc(OC)cc3OC2(c2ccc3c(c2)OCO3)C1c1ccccc1 (centres unmarked) [Roc-AF, 30,40-methylendioxy-methylrocaglate] | did not protect T cells | did not inhibit protein translation | do not show any or very little inhibitory effects on ERK activity | 
COc1cc(OC)c2c(c1)OC1(c3ccc4c(c3)OCO4)C(c3ccccc3)CC(=O)C21O (centres unmarked) [Roc-AR, 1-oxo-40-demethoxy-30,40-methylenedioxyrocaglaol] | different levels of protection | inhibited [^35S]methionine incorporation at different degrees | inhibit ERK activation with different efficacies | 
COc1cc(OC)c2c(c1)OC1(c3ccc(OC)c(O)c3)C(c3ccccc3)C(C(=O)N(C)C)C(OC(C)=O)C21O (centres unmarked) [Roc-I, C-1-O-acetyl-30-hydroxy-rocaglamide] | did not protect T cells | did not inhibit protein translation | do not show any or very little inhibitory effects on ERK activity | 
COC(=O)[C@H]1[C@@H](O)[C@@]2(O)c3c(OC)cc(OC)cc3O[C@@]2(c2ccc(OC)c(O)c2)[C@@H]1c1ccccc1 [Roc-J, 30-hydroxyaglafoline] | different levels of protection | inhibited [^35S]methionine incorporation at different degrees | inhibit ERK activation with different efficacies | 
CNC(=O)[C@H]1[C@@H](O)[C@@]2(O)c3c(OC)cc(OC)cc3O[C@@]2(c2ccc(OC)cc2)[C@@H]1c1ccccc1 [Roc-Q, demethylrocaglamide] | different levels of protection | inhibited [^35S]methionine incorporation at different degrees | inhibit ERK activation with different efficacies | 
